In assay [1] the target is T1, MAO-A (Homo sapiens (Human), UniProt P21397). Particulars: read-out: MAO-A (Ki).
For the next assay, the target named is MAO-B (Homo sapiens (Human), UniProt P27338). Conditions: read-out: MAO-B (Ki).
For assay [2], the target named is Human recombinant LSD1 protein (Homo sapiens (Human), UniProt O60341). Nature of the assay: biochemical.
Excerpt: The ability of the compounds of the invention to inhibit LSD1 can be tested as follows. Human recombinant LSD1 protein was purchased from BPS Bioscience Inc. In order to monitor LSD1 enzymatic activity and/or its inhibition rate by our inhibitor(s) of interest, di-methylated H3-K4 peptide (Millipore) was chosen as a substrate. The demethylase activity was estimated, under aerobic conditions, by measuring the release of H2O2 produced during the catalytic process, using the Amplex® Red peroxide/peroxidase-coupled assay kit (Invitrogen).
Within the experiment, each concentration of inhibitor was tested in triplicate. […] The enzymatic reactions were set up in a 50 mM sodium phosphate, pH 7.4 buffer. At the end of the incubation, Amplex® Red reagent and horseradish peroxidase (HPR) solution were added to the reaction according to the recommendations provided by the supplier (Invitrogen), and left to incubate for 30 extra minutes at room temperature in the dark. A 1 μM H2O2 solution was used as a control of the kit efficiency.
The Ki (IC50) of each inhibitor was estimated at half of the maximum activity.
The target of assay [3] is T1, MAO-A. As to the kind of experiment: biochemical.

Where a name gives a salt, the structure may show the parent alone. Read-outs that look alike come from different tables or passages of the source.

What is called Ki is the equilibrium dissociation constant of an inhibitor or competing ligand from its target.

T1 sequence (P21397 whole entry): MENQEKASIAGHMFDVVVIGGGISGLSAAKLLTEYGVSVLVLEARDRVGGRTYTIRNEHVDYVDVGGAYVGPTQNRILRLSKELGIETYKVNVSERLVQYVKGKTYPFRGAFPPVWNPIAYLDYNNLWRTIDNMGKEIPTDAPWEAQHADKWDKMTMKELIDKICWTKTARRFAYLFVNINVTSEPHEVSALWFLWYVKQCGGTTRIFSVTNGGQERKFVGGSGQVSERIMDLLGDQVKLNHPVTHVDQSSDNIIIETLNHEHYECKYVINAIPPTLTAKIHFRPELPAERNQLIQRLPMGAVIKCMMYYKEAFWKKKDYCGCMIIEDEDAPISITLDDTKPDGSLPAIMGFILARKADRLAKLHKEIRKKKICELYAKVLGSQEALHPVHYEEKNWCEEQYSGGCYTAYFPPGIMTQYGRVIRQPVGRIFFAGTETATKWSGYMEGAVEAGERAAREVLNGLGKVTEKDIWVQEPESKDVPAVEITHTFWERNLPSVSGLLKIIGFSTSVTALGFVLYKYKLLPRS
MAO-B, sequence (P27338 whole entry): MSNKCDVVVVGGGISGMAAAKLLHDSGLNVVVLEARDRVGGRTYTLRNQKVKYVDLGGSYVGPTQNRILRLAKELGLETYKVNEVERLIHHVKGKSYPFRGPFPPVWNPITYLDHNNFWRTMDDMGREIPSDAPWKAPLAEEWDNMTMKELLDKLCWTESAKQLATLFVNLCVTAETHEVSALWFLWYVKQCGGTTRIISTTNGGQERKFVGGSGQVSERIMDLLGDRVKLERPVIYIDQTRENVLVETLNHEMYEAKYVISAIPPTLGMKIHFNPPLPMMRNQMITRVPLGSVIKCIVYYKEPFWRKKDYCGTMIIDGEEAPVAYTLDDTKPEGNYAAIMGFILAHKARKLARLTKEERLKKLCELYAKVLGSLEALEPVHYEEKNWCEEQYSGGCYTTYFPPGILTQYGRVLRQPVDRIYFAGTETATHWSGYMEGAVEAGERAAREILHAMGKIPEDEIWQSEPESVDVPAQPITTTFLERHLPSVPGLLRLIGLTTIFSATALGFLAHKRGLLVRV

For the compound `Cc1nc(-c2cccc(C(F)(F)F)c2)ccc1[C@H]1C[C@@H]1N` (relative stereo) [Example 80, (trans)-2-(2-methyl-6-(3-(trifluoromethyl)phenyl)pyridin-3-yl)cyclopropanamine hydrochloride], the Ki on MAO-A [1] lay in the range of 1 to 40 µM; on MAO-B, 1 to 40 µM; in assay [2], 0.1 to 1 µM.
On MAO-A [3], `N#Cc1ccc(O)c(-c2ccc([C@H]3C[C@@H]3N)cc2)c1` (relative stereo) [Example 87, 4′-((trans)-2-aminocyclopropyl)-6-hydroxybiphenyl-3-carbonitrile hydrochloride] came in with an inhibition constant Ki of 0.1 to 1 µM.
`N#Cc1ccc(O)c(-c2ccc([C@H]3C[C@@H]3N)cn2)c1` (relative stereo) [Example 89, 3-(5-((trans)-2-aminocyclopropyl)pyridin-2-yl)-4-hydroxybenzonitrile hydrochloride] displayed an inhibitory constant (Ki) at MAO-A [3] of 0.1 to 1 µM.
On the same count and under the same terms, in the case of `CS(=O)(=O)Nc1cc(Cl)cc(-c2ccc([C@H]3C[C@@H]3N)cn2)c1` (relative stereo) [Example 95, N-(3-(5-((trans)-2-aminocyclopropyl)pyridin-2-yl)-5-chlorophenyl)methanesulfonamide hydrochloride] it was 0.1 to 1 µM.
Regarding `CS(=O)(=O)Nc1cc(-c2ccc([C@H]3C[C@@H]3N)cc2)ccc1F` (relative stereo) [Example 96, N-(4′-((trans)-2-aminocyclopropyl)-4-fluoro-[1,1′-biphenyl]-3-yl)methanesulfonamide hydrochloride], the Ki fell in the range of 1 to 40 µM on MAO-B, 0.001 to 0.1 µM in assay [2] and 0.1 to 1 µM at MAO-A [3].
As to `CS(=O)(=O)Nc1cc(-c2ccc([C@H]3C[C@@H]3N)cn2)ccc1F` (relative stereo) [Example 97, N-(5-(5-((trans)-2-aminocyclopropyl)pyridin-2-yl)-2-fluorophenyl)methanesulfonamide hydrochloride], the results for the Ki (at MAO-A [1]; at MAO-B; in assay [2]) were 1 to 40 µM, 1 to 40 µM and 0.1 to 1 µM, respectively.
With `CCS(=O)(=O)Nc1cccc(-c2ccc([C@H]3C[C@@H]3N)cn2)c1` (relative stereo) [Example 98, N-(3-(5-((trans)-2-aminocyclopropyl)pyridin-2-yl)phenyl)ethanesulfonamide hydrochloride], the values for the inhibition constant Ki (on MAO-A [1]; at MAO-B; in assay [2]) were 1 to 40 µM, 1 to 40 µM and 0.001 to 0.1 µM, respectively.
With `N#Cc1cccc(S(=O)(=O)Nc2cccc(-c3ccc([C@H]4C[C@@H]4N)cn3)c2)c1` (relative stereo) [Example 100, N-(3-(5-((trans)-2-aminocyclopropyl)pyridin-2-yl)phenyl)-3-cyanobenzenesulfonamide hydrochloride], on MAO-A [3], the inhibition constant Ki was 0.1 to 1 µM.
Turning to `COc1cc(-c2cccc(O)c2)ccc1[C@H]1C[C@@H]1N` (relative stereo) [Example 106, 4′-((trans)-2-aminocyclopropyl)-3′-methoxy-[1,1′-biphenyl]-3-ol hydrochloride], the Ki at MAO-B lay within 1 to 40 µM; in assay [2], 0.1 to 1 µM; at MAO-A [3] it was 0.1 to 1 µM.
Take `N[C@H]1C[C@@H]1c1cnc(-c2cccc(O)c2)s1` (relative stereo) [Example 116, 3-(5-((trans)-2-aminocyclopropyl)thiazol-2-yl)phenol hydrochloride]: the Ki at MAO-B lay within 1 to 40 µM; in assay [2], 0.001 to 0.1 µM; at MAO-A [3] it was 0.001 to 0.1 µM.
Turning to `N#Cc1ccccc1S(=O)(=O)Nc1cccc(-c2ncc([C@H]3C[C@@H]3N)s2)c1` (relative stereo) [Example 124, N-(3-(5-((trans)-2-aminocyclopropyl)thiazol-2-yl)phenyl)-2-cyanobenzenesulfonamide dihydrochloride], the figures for the Ki (on MAO-A [1]; on MAO-B; in assay [2]) were 1 to 40 µM, 1 to 40 µM and 0.001 to 0.1 µM, respectively.
As to `CNS(=O)(=O)c1cccc(-c2ccc([C@H]3C[C@@H]3N)cn2)c1` [Example 104, hydrochloride], the results for the inhibition constant (Ki) at MAO-B and at MAO-A [3] were 1 to 40 µM and 0.1 to 1 µM, respectively.
